From ChEMBL document CHEMBL1127364, “L-735,524: the design of a potent and orally bioavailable HIV protease inhibitor” (J Med Chem, 1994)

What was measured:
MT4 [1] = test: Compound was evaluated for the inhibition of the spread of HIV-1 IIIb infection in MT-4 human T-lymphoid cells; value ranges from 50-100 nM; type: functional; settings: read-out: CIC95
[2] = target: Human immunodeficiency virus type 1 protease (Human immunodeficiency virus 1, UniProt Q72874); test: Evaluated for the inhibition of HIV protease
[3] = target: Human immunodeficiency virus type 1 protease (Human immunodeficiency virus 1) (UniProt Q72874); test: Inhibition of the spread of HIV-1 IIIb infection in MT-4 human T-lymphoid cells; type: functional, cell-based
[4] = Partition coefficient of the compound was evaluated; type: physicochemical; settings: octanol/water
MT4 [5] = test: Compound was evaluated for the inhibition of the spread of HIV-1 IIIb infection in MT-4 human T-lymphoid cells; value ranges from 25-100 nM; type: functional; settings: read-out: CIC95
[6] = Compound was evaluated for maximum plasma concentration levels in dogs at 10 mg/kg (in 0.05M citric acid solution) po; settings: dog
MT4 [7] = test: Compound was evaluated for the inhibition of the spread of HIV-1 IIIb infection in MT-4 human T-lymphoid cells; value ranges from 25-50 nM; type: functional; settings: read-out: CIC95
[8] = Compound was evaluated for the solubility at pH value of 7.4; type: physicochemical; settings: pH 7.4
MT4 [9] = test: Compound was evaluated for the inhibition of the spread of HIV-1 IIIb infection in MT-4 human T-lymphoid cells; value ranges from […]-[…] nM; type: functional; settings: read-out: CIC95

Row | Structure (SMILES) | IC50 [2] [nM] | IC95 [3] [nM] | further results
1 | CC(C)(C)NC(=O)[C@@H]1CN(Cc2ccncc2)CCN1C[C@@H](O)C[C@@H](Cc1ccccc1)C(=O)N[C@@H]1c2ccccc2C[C@H]1O | 0.39 | – | IC95 (MT4 [1]): 50 nM
2 | CC(C)(C)NC(=O)[C@@H]1CN(S(=O)(=O)c2cccnc2)CCN1C[C@@H](O)C[C@@H](Cc1ccccc1)C(=O)N[C@@H]1c2ccccc2C[C@H]1O | 0.3 | 200 | –
3 | CC(C)(C)NC(=O)[C@@H]1CN(Cc2cccnc2)CCN1C[C@@H](O)C[C@@H](Cc1ccccc1)C(=O)NC1c2ccccc2C[C@H]1O.O (single isomer, unassigned) | – | – | logP [4]: 2.92; IC95 (MT4 [5]): 25 nM; Cmax [6]: 11400 nM
4 | CC(C)(C)NC(=O)[C@@H]1CCCCN1C[C@@H](O)C[C@@H](Cc1ccccc1)C(=O)N[C@@H]1c2ccccc2C[C@H]1O | 80 | – | –
5 | CC(C)(C)NC(=O)[C@@H]1CN(Cc2ccc(F)cc2F)CCN1C[C@@H](O)C[C@@H](Cc1ccccc1)C(=O)N[C@@H]1c2ccccc2C[C@H]1O | 0.31 | – | logP [4]: 3.69; IC95 (MT4 [7]): 25 nM; Cmax [6]: 730 nM
6 | CC(C)(C)NC(=O)[C@@H]1CN(CC(=O)OC(C)(C)C)CCN1C[C@@H](O)C[C@@H](Cc1ccccc1)C(=O)N[C@@H]1c2ccccc2C[C@H]1O | 0.81 | 100 | –
7 | CC(C)(C)NC(=O)[C@@H]1CC2CCCCC2CN1C[C@@H](O)C[C@@H](Cc1ccccc1)C(=O)N[C@@H]1c2ccccc2C[C@H]1O (some centres undefined) | 7.8 | 400 | –
8 | CC(C)(C)NC(=O)[C@@H]1CNCCN1C[C@@H](O)C[C@@H](Cc1ccccc1)C(=O)N[C@@H]1c2ccccc2C[C@H]1O | 38 | 3000 | –
9 | CC(C)(C)NC(=O)[C@@H]1CN(Cc2ccccc2)CCN1C[C@@H](O)C[C@@H](Cc1ccccc1)C(=O)N[C@@H]1c2ccccc2C[C@H]1O | 0.3 | 50 | –
10 | CC(C)(C)NC(=O)[C@@H]1CN(CCOCc2ccccc2)CCN1C[C@@H](O)C[C@@H](Cc1ccccc1)C(=O)N[C@@H]1c2ccccc2C[C@H]1O | 1.03 | 100 | –
11 | CC(C)(C)NC(=O)[C@@H]1CN(S(=O)(=O)c2cccc3cccnc23)CCN1C[C@@H](O)C[C@@H](Cc1ccccc1)C(=O)N[C@@H]1c2ccccc2C[C@H]1O | 0.013 | – | solubility [8]: < 1 µg/mL; logP [4]: 3.7; IC95 (MT4 [9]): 12.5 nM; Cmax [6]: < 100 nM
12 | CC(C)(C)NC(=O)[C@@H]1CN(C(=O)OCc2ccccc2)CCN1C[C@@H](O)C[C@@H](Cc1ccccc1)C(=O)NC1c2ccccc2C[C@H]1O (single isomer, unassigned) | 0.36 | 100 | solubility [8]: < 1 µg/mL; logP [4]: 4.67; Cmax [6]: < 100 nM
13 | CC(C)(C)NC(=O)[C@@H]1CCCN1C[C@@H](O)C[C@@H](Cc1ccccc1)C(=O)N[C@@H]1c2ccccc2C[C@H]1O | 347 | 1500 | –
14 | CC(C)(C)NC(=O)[C@@H]1C[C@H](Oc2ccc3ccccc3c2)CN1C[C@@H](O)C[C@@H](Cc1ccccc1)C(=O)N[C@@H]1c2ccccc2C[C@H]1O | 15 | > 400 | –
15 | CC(C)(C)NC(=O)[C@@H]1CN(Cc2ccccc2S)CCN1C[C@@H](O)C[C@@H](Cc1ccccc1)C(=O)N[C@@H]1c2ccccc2C[C@H]1O | 0.54 | 25 | –
16 | CCN1CCN(C[C@@H](O)C[C@@H](Cc2ccccc2)C(=O)N[C@@H]2c3ccccc3C[C@H]2O)[C@H](C(=O)NC(C)(C)C)C1 | 6.1 | > 400 | –
17 | Cc1nc(S(=O)(=O)N2CCN(C[C@@H](O)C[C@@H](Cc3ccccc3)C(=O)N[C@@H]3c4ccccc4C[C@H]3O)[C@H](C(=O)NC(C)(C)C)C2)c(C)s1 | 0.16 | 200 | –
18 | CC(C)(C)NC(=O)[C@@H]1CN(C(=O)c2cc3ccccc3oc2=O)CCN1C[C@@H](O)C[C@@H](Cc1ccccc1)C(=O)N[C@@H]1c2ccccc2C[C@H]1O | 0.13 | 50 | –
